Assay results reported in PMC6405842, “Identification of a novel scaffold for a small molecule GPR139 receptor agonist” (Scientific Reports, 2019).
Changes are numbered by the printed parent chain.

Key:
GPR139 = molecular target: T1, GPR139 (Homo sapiens, UniProt Q6DWJ6); assay: Phospho-ERK1/2 HTRF assay in CHO-GPR139 cells; assay type: cell-based; conditions: ERK phosphorylation
T1 construct: host or cells: CHO-k1
T1 sequence (Q6DWJ6 1-353): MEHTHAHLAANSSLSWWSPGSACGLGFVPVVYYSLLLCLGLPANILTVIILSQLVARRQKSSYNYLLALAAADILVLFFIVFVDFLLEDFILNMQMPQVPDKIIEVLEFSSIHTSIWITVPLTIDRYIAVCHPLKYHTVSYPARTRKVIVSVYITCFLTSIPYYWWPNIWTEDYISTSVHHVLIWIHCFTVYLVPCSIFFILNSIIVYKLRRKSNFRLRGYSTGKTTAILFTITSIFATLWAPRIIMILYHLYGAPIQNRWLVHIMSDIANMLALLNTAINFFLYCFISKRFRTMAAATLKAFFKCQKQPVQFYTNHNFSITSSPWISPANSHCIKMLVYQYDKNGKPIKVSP
Experimental: All compounds were tested on a CHO-k1 cell line stably expressing GPR139 (CHO-GPR139)[11] kindly provided by H. Lundbeck A/S, Denmark. GPR139-specific responses were assessed using a CHO-k1 cell line stably expressing the muscarinic acetylcholine receptor M1 (CHO-M1) (The Missouri S&T cDNA Resource Center, # CEM100TN00).
Phospho-ERK measurements were made using the Advanced Phospho-ERK1/2 (Thr202/Tyr204) HTRF kit by Cisbio (Codolet, France). Approximately 24 hours prior to the experiment, CHO-GPR139 cells were plated at 50,000 cells/well onto a 96-well plate and cultured as detailed above. Approximately 6 hours later, the media was aspirated, replaced with 50 μL serum-free media, and the cells were allowed to serum starve overnight. The day of the experiment, serial dilutions of the test compounds and controls were made in serum-free media at 2x final concentration. 50 μL of test compounds were added directly to the appropriate wells for 5 minute stimulation at 37 °C. At this point, the media and compounds were rapidly aspirated, lysis/blocking buffer was added, and cells were lysed on a shaker for 30 minutes at room temperature.
The Ca^2+ and ERK responses were normalized as indicated and the concentration response curves were fitted by Prism 6 software (GraphPad) using nonlinear regression in a sigmoidal model with variable slope, as has been previously described.

GPR139 W241H^6×48 = molecular target: T2, GPR139 W241H^6×48 (Homo sapiens, UniProt Q6DWJ6, W241H); assay: Ca2+ mobilization on GPR139 mutant W241H; assay type: cell-based
T2 construct: myc (N); expressed in transfected cells
T2 sequence (Q6DWJ6 1-353 W241H): T1 sequence (Q6DWJ6 1-353) with W241H
Experimental: Figure 4 Ca^2+ mobilization concentration-response curves of AC4 on GPR139 wild-type (WT) and mutants. Data is shown from a representative experiment (mean ± S.D.) out of three independent experiments performed in duplicate. Data is normalized to the Ca^2+ response of buffer (0%) and 100 μM AC4 (100%) on myc-GPR139(WT). Residue numbering in superscript is according to GPCRdb numbering system.
The mutational studies were performed as previously described.

EC50 (GPR139; CHO-GPR139 cells, read-out: pEC50 ± SEM (converted)): 178 nM | Emax (GPR139; expressed relative to FBS positive control): 77.2 ± 6.53% | Emax (GPR139 W241H^6×48; mutant W241H, n = 3): 37 ± 3% | fold change of EC50 on W241H versus WT (GPR139 W241H^6×48; printed as lower EC50 than on WT): 12 fold
Compound: O=C(O)C1CC=CCC1c1nnc(CSc2ccc(Cl)cc2)o1 (stereo not shown) [AC4]
